target: activated ERK2 (Homo sapiens, UniProt P28482); assay: ERK2 inhibition assay, spectrophotometric coupled-enzyme assay; type: biochemical; conditions: activated ERK2 10 nM, 65 μM ATP, 200 μM erktide peptide, 30° C., pH 7.5
Protocol: In this assay, a fixed concentration of activated ERK2 (10 nM) was incubated with various concentrations of a compound of the present invention in DMSO (2.5%) for 10 min. at 30° C. in 0.1 M HEPES buffer (pH 7.5), containing 10 mM MgCl2, 2.5 mM phosphoenolpyruvate, 200 μM NADH, 150 μg/ml pyruvate kinase, 50 μg/ml lactate dehydrogenase, and 200 μM erktide peptide.

Chain of activated ERK2 (P28482 whole entry): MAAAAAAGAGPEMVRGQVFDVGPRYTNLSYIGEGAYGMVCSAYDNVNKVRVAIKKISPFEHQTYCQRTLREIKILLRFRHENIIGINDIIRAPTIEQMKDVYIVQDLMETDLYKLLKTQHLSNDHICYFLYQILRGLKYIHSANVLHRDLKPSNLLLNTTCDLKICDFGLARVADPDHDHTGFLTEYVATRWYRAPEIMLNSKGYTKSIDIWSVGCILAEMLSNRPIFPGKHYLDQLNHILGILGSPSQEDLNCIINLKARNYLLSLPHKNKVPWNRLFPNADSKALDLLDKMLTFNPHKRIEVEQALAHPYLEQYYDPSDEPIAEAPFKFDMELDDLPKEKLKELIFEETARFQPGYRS

Ki | SMILES
> 100 nM | Cc1cnc(Nc2c(Cl)cccc2Cl)nc1-c1c[nH]c(C(=O)NC(CO)c2ccccc2)c1 (centres unmarked) [Compound I-8]
< 100 nM | Cc1cnc(Nc2cccc(Cl)c2Cl)nc1-c1c[nH]c(C(=O)NC(CO)c2ccccc2)c1 (centres unmarked) [Compound I-6]
< 100 nM | Cc1cnc(Nc2c(F)cccc2Cl)nc1-c1c[nH]c(C(=O)NC(CO)c2ccccc2)c1 (centres unmarked) [Compound I-12]
< 100 nM | Cc1cnc(Nc2ccc(Cl)cc2Cl)nc1-c1c[nH]c(C(=O)NC(CO)c2ccccc2)c1 (centres unmarked) [Compound I-3]
< 100 nM | Cc1cnc(Nc2ccccc2Cl)nc1-c1c[nH]c(C(=O)NC(CO)c2cccc(C(F)(F)F)c2)c1 (centres unmarked) [Compound I-11]
< 100 nM | Cc1cnc(Nc2ccc([N+](=O)[O-])cc2Cl)nc1-c1c[nH]c(C(=O)NC(CO)c2ccccc2)c1 (centres unmarked) [Compound I-4]
< 100 nM | Cc1cccc(C(CO)NC(=O)c2cc(-c3nc(Nc4ccccc4Cl)ncc3C)c[nH]2)c1 (centres unmarked) [Compound I-10]

SMILES | Ki
Cc1cnc(Nc2c(C)cccc2Cl)nc1-c1c[nH]c(C(=O)NC(CO)c2ccccc2)c1 (centres unmarked) [Compound I-9] | > 100 nM
